Patent publication US12649744B2, “N-(pyridin-2-yl)-6,7,8,9-tetrahydro-5h-5,8-epiminocyclohepta[c]pyridine-10-carboxamide derivatives and similar compounds as GPR65 modulators for the treatment of cancer” (PATHIOS THERAPEUTICS LIMITED, priority 2020, dated 2026)

What follows are compounds tested against human recombinant GPR65 (Homo sapiens, UniProt Q8IYL9) (assay: Human GPR65 cAMP HTRF antagonist assay). Settings: not given.
Sequence of human recombinant GPR65 (Q8IYL9 whole entry): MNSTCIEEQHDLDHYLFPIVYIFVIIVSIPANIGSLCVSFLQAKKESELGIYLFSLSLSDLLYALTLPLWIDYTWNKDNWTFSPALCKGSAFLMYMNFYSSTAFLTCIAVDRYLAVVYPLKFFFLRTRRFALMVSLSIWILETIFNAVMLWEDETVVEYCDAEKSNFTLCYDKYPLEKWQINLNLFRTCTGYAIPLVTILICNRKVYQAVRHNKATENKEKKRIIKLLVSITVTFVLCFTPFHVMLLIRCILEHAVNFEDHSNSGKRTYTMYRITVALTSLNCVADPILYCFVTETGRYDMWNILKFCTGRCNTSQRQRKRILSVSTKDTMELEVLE
Format: cell-based
Source text: The “Human GPR65 cyclic adenosine monophosphate (cAMP) Homogeneous Time Resolved Fluorescence (HTRF) antagonist assay”, or simply “cAMP assay”, as described below, can be used to measure the potency of GPR65 modulators, which is expressed as the concentration of compound required to reduce the increase in cAMP concentration upon GPR65 activation by 50% (i.e. an IC50).
Human GPR65 Cyclic Adenosine Monophosphate (cAMP) Homogeneous Time Resolved Fluorescence (HTRF) Antagonist Assay Procedure
IC50 data was obtained by the following procedure:
1321N1 human astrocytoma cells stably expressing human recombinant GPR65 (1321N1-hrGPR65 cells, EuroscreenFast) were cultured according to the vendor's instructions.
Compounds were tested for their ability to antagonise GPR65, through measuring the concentration of cytoplasmic cAMP following treatment of the cells at a pH of 7.2 to activate GPR65 signalling and addition of the compound to be tested. The extent to which the expected rise in cAMP concentration upon GPR65 activation was suppressed by the added compound is indicative of its potency. The assay was carried out according to EuroscreenFast assay methodology as follows.
On the day of the assay, test compounds were added to 384-well, low volume, white microtiter plates by acoustic dispensing. KRH buffer (5 mM KCl, 1.25 mM MgSO4, 124 mM NaCl, 25 mM HEPES, 13.3 mM Glucose, 1.25 mM KH2PO4 and 1.45 mM CaCl2) was adjusted to pH 6.5, pH 7.6 and pH 8.4 by adding NaOH. 1321N1-hGPR65 cells were rapidly thawed and diluted in KRH, pH 7.6 prior to centrifugation at 300×g for 5 min and resuspension in assay buffer (KRH, pH 7.6, supplemented with 1 mM 3-isobutyl-1-methylxanthine (IBMX) and 200 μM ethylenediaminetetraacetic acid (EDTA)). Cells were added to assay plates at a density of 2,000 cells per well in a volume of 5 μl. Assay plates were briefly centrifuged at 100×g and then incubated at room temperature for 30 min. Cells were stimulated by the addition of 5 μL KRH, pH 6.5, to achieve an assay pH of 7.2, while control wells received 5 μl KRH, pH 8.4 to achieve an assay pH of 7.9. Assay plates were briefly centrifuged at 100×g and then incubated at room temperature for 30 min.
Accumulation of cAMP was detected by cAMP HTRF kit (Cisbio). d2-labeled cAMP and cryptate-labeled anti-cAMP antibody in Lysis and Detection Buffer (Cisbio) were added to assay plates, and the plates were incubated at room temperature for 1 h. HTRF measurements were performed using a Pherastar FSX instrument. Acceptor and donor emission signals were measured at 665 nm and 620 nm, respectively, and HTRF ratios were calculated as signal665 nm/signal620nm×10^4. Data were normalised to high and low control values and fitted with 4-parameter logistic regression to determine hGPR65 IC50 values for the test compounds, which are shown in Table 1.
O=C(Nc1cc(Cl)c(Cl)cn1)N1C2CCC1c1c[nH]c(=O)c(F)c1C2 (racemic) [Compound 11, (±)-N-(4,5-dichloropyridin-2-yl)-4-fluoro-3-oxo-3,5,6,7,8,9-hexahydro-2H-6,9-epiminocyclohepta[c]pyridine-10-carboxamide] was tested, and the IC50 was < 0.5 µM.

Same assay, conditions: 1321N1-hrGPR65 cells, assay pH of 7.2, cAMP HTRF; read-out: hGPR65 IC50
In the case of O=C(Nc1ccc2nc(C(F)(F)F)ccc2c1)N1[C@H]2CC[C@@H]1c1ccnc(F)c1C2 [Compound 44, (5R,8S)-1-Fluoro-N-(2-(trifluoromethyl)quinolin-6-yl)-6,7,8,9-tetrahydro-5H-5,8-epiminocyclohepta[c]pyridine-10-carboxamide], the IC50 is reported as < 0.5 µM. O=C(Nc1nnc(-c2ccccc2)o1)N1[C@H]2CC[C@@H]1c1ccnc(F)c1C2 [Compound 45, (5R,8S)-1-Fluoro-N-(5-phenyl-1,3,4-oxadiazol-2-yl)-6,7,8,9-tetrahydro-5H-5,8-epiminocyclohepta[c]pyridine-10-carboxamide] was tested, and the IC50 was 0.5 to 5 µM. In the case of O=C(Nc1noc(-c2ccccc2)n1)N1[C@H]2CC[C@@H]1c1ccnc(F)c1C2 [Compound 22, (5R,8S)-1-fluoro-N-(5-phenyl-1,2,4-oxadiazol-3-yl)-6,7,8,9-tetrahydro-5H-5,8-epiminocyclohepta[c]pyridine-10-carboxamide], the IC50 is reported as < 0.5 µM. For O=C(Nc1cc(Cl)c(C(F)(F)F)cn1)N1C2CCC1c1cncnc1C2 (racemic) [Compound 28, (±)-N-(4-chloro-5-(trifluoromethyl)pyridin-2-yl)-6,7,8,9-tetrahydro-5H-5,8-epiminocyclo-hepta[d]pyrimidine-10-carboxamide], the IC50 was 0.5 to 5 µM. For CCc1nnc(NC(=O)N2[C@H]3CC[C@@H]2c2ccnc(F)c2C3)s1 [Compound 26, (5R,8S)-N-(5-ethyl-1,3,4-thiadiazol-2-yl)-1-fluoro-6,7,8,9-tetrahydro-5H-5,8-epiminocyclohepta[c]pyridine-10-carboxamide], the IC50 was 0.5 to 5 µM. With O=C(Nc1cc(Cl)c(C(F)(F)F)cn1)N1[C@H]2CC[C@@H]1c1ccnc(F)c1C2 [Compound 1, (5R,8S)-N-(4-chloro-5-(trifluoromethyl)pyridin-2-yl)-1-fluoro-6,7,8,9-tetrahydro-5H-5,8-epiminocyclohepta[c]pyridine-10-carboxamide] the IC50 was < 0.5 µM. With O=C(Nc1ccc(C(F)(F)F)cn1)N1[C@H]2CC[C@@H]1c1ccnc(F)c1C2 [Compound 19, (5R,8S)-1-fluoro-N-(5-(trifluoromethyl)pyridin-2-yl)-6,7,8,9-tetrahydro-5H-5,8-epiminocyclohepta[c]pyridine-10-carboxamide] the IC50 was < 0.5 µM. Cc1nonc1NC(=O)N1[C@H]2CC[C@@H]1c1ccnc(F)c1C2 [Compound 21, (5R,8S)-1-fluoro-N-(4-methyl-1,2,5-oxadiazol-3-yl)-6,7,8,9-tetrahydro-5H-5,8-epiminocyclohepta[c]pyridine-10-carboxamide] showed an IC50 of 0.5 to 5 µM. Cc1nnc(NC(=O)N2[C@H]3CC[C@@H]2c2ccnc(F)c2C3)s1 [Compound 43, (5R,8S)-1-Fluoro-N-(5-methyl-1,3,4-thiadiazol-2-yl)-6,7,8,9-tetrahydro-5H-5,8-epiminocyclohepta[c]pyridine-10-carboxamide] was tested, and the IC50 was > 5 µM. O=C(Nc1cc(C(F)(F)F)ncc1F)N1[C@H]2CC[C@@H]1c1ccnc(F)c1C2 [Compound 18, (5R,8S)-1-fluoro-N-(5-fluoro-2-(trifluoromethyl)pyridin-4-yl)-6,7,8,9-tetrahydro-5H-5,8-epiminocyclohepta[c]pyridine-10-carboxamide] showed an IC50 of 0.5 to 5 µM. For O=C(Nc1ccc(OC(F)F)cn1)N1[C@H]2CC[C@@H]1c1ccnc(F)c1C2 [Compound 39, (5R,8S)-N-(5-(Difluoromethoxy)pyridin-2-yl)-1-fluoro-6,7,8,9-tetrahydro-5H-5,8-epiminocyclohepta[c]pyridine-10-carboxamide], the IC50 was 0.5 to 5 µM. Compound O=C(Nc1nnc(-c2ccncc2)s1)N1[C@H]2CC[C@@H]1c1ccnc(F)c1C2 [Compound 24, (5R,8S)-1-fluoro-N-(5-(pyridin-4-yl)-1,3,4-thiadiazol-2-yl)-6,7,8,9-tetrahydro-5H-5,8-epiminocyclohepta[c]pyridine-10-carboxamide] has an IC50 of 0.5 to 5 µM. In the case of O=C(Nc1cc(Cl)c(Cl)cn1)N1[C@H]2CC[C@@H]1c1ccnc(F)c1C2 [Compound 2, (5R,8S)-N-(4,5-dichloropyridin-2-yl)-1-fluoro-6,7,8,9-tetrahydro-5H-5,8-epiminocyclohepta[c]pyridine-10-carboxamide], the IC50 is reported as < 0.5 µM. Cn1nc(NC(=O)N2[C@H]3CC[C@@H]2c2ccnc(F)c2C3)c2ccccc21 [Compound 34, (5R,8S)-1-Fluoro-N-(1-methyl-1H-indazol-3-yl)-6,7,8,9-tetrahydro-5H-5,8-epiminocyclohepta[c]pyridine-10-carboxamide] was tested, and the IC50 was > 5 µM. In the case of O=C(Nc1cnc(-c2ccccc2)s1)N1[C@H]2CC[C@@H]1c1ccnc(F)c1C2 [Compound 29, (5R,8S)-1-Fluoro-N-(2-phenylthiazol-5-yl)-6,7,8,9-tetrahydro-5H-5,8-epiminocyclohepta[c]pyridine-10-carboxamide], the IC50 is reported as < 0.5 µM. With O=C(Nc1ccc(OC(F)(F)F)cn1)N1[C@H]2CC[C@@H]1c1ccnc(F)c1C2 [Compound 40, (5R,8S)-1-Fluoro-N-(5-(trifluoromethoxy)pyridin-2-yl)-6,7,8,9-tetrahydro-5H-5,8-epiminocyclohepta[c]pyridine-10-carboxamide] the IC50 was < 0.5 µM. With O=C(Nc1ccc2nc(C(F)(F)F)ccc2c1)N1[C@H]2CC[C@@H]1c1c[nH]c(=O)cc1C2 [Compound 10, (6S,9R)-3-oxo-N-(2-(trifluoromethyl)quinolin-6-yl)-3,5,6,7,8,9-hexahydro-2H-6,9-epiminocyclohepta[c]pyridine-10-carboxamide] the IC50 was < 0.5 µM. In the case of N#Cc1cnc(NC(=O)N2[C@H]3CC[C@@H]2c2ccnc(F)c2C3)cc1Cl [Compound 46, (5R,8S)-N-(4-Chloro-5-cyanopyridin-2-yl)-1-fluoro-6,7,8,9-tetrahydro-5H-5,8-epiminocyclohepta[c]pyridine-10-carboxamide], the IC50 is reported as < 0.5 µM. O=C(Nc1cc(C(F)(F)F)on1)N1[C@H]2CC[C@@H]1c1c[nH]c(=O)cc1C2 [Compound 49, (6S,9R)-3-oxo-N-(5-(trifluoromethyl)isoxazol-3-yl)-3,5,6,7,8,9-hexahydro-2H-6,9-epiminocyclohepta[c]pyridine-10-carboxamide] was tested, and the IC50 was < 0.5 µM. In the case of O=C(Nc1cc(C(F)(F)F)on1)N1[C@H]2CC[C@@H]1c1ccnc(F)c1C2 [Compound 36, (5R,8S)-1-Fluoro-N-(5-(trifluoromethyl)isoxazol-3-yl)-6,7,8,9-tetrahydro-5H-5,8-epiminocyclohepta[c]pyridine-10-carboxamide], the IC50 is reported as < 0.5 µM. COC(=O)c1cc(NC(=O)N2[C@H]3CC[C@@H]2c2ccnc(F)c2C3)no1 [Compound 51, methyl-3-((5R,8S)-1-fluoro-6,7,8,9-tetrahydro-5H-5,8-epiminocyclohepta[c]pyridine-10-carboxamido)isoxazole-5-carboxylate] was tested, and the IC50 was 0.5 to 5 µM. With O=C(Nc1cc(C(F)(F)F)no1)N1[C@H]2CC[C@@H]1c1ccnc(F)c1C2 [Compound 50, (5R,8S)-1-fluoro-N-(3-(trifluoromethyl)isoxazol-5-yl)-6,7,8,9-tetrahydro-5H-5,8-epiminocyclohepta[c]pyridine-10-carboxamide] the IC50 was < 0.5 µM.
